Data set [1] relates to Luc705 pre-mRNA in HeLa Luc705 cells. Description: RT-PCR of corrected luciferase mRNA. Format: cell-based. Particulars: with SSO, FIG. 9. As to the method: (§1) The percentage of corrected luciferase mRNA was quantified using a previously validated RT-PCR protocol. (Saher et al. (2019) Pharmaceutics. 11(12):666) Total RNA was extracted from HeLa Luc705 and Huh7 Luc705 cells using TRI Reagent (Sigma-Aldrich) according to the manufacturer's instructions.
(§2) For RT-PCR reactions using ONE STEP RT-PCR kit (QIAGEN), three nanograms of isolated RNA were utilized. The total reaction volume was 20 μL and the primer sequences used were:
(§3) The program for the RT-PCR was as follows: 55° C., 35 min, then 95° C., 15 min, for the reverse transcription step, directly followed by the PCR (94° C., 30 s, then 55° C., 30 s, then 72° C., 30 s) for 30 cycles and the final extension 72° C., 10 min. The PCR products were analyzed using a 1% agarose gel in 0.5× TAE buffer and visualized by SYBR Gold (Invitrogen, Molecular products) staining.
(§4) Versadoc imaging system with a cooled CCD camera (BioRad, Hercules, CA, USA) was used for the analysis of gels. Band intensities were analyzed with the Quantity One software (BioRad, Hercules, CA, USA). The percentage of correction was calculated using this equation (Band intensity of corrected RNA*100/(Band intensity of corrected RNA+Band intensity of uncorrected RNA).

The test system of data set [2] is Luc705 pre-mRNA in Huh7 Luc705 cells. As to the kind of experiment: RT-PCR of corrected luciferase mRNA. To be noted: with SSO, Huh7, FIG. 9. Format: cell-based. As to the method: as §1, §2, §3, §4
Another data set has as its system MALAT1 mRNA. Description: MALAT1 knockdown by gapmer, real-time PCR. Format: cell-based, mouse. Particulars: 2 μM AZ3327 with 2 μM gapmer, N2A cells, FIG. 28. As for the experimental part: N2A cells were cultured in Dulbecco's modified eagle medium (Gibco, 31,966) containing 10% fetal bovine serum (Gibco, 10,270) and were maintained at 37° C. in a humidified atmosphere containing 5% CO2, 21% O2.
For knockdown analysis of the gapmers, 24-well plates 50,000 N2A cells in 500 μL total volume of media per well. Twenty-four hours later, the cells were treated with 2 μM MALAT1-targeting gapmer oligonucleotide having the sequence GM5CAttm5ctaatagm5cAGM5C, where m5c is 5-methylcytidine and capital letters are LNA nucleosides (SEQ ID NO:4) (Oligo Only), 2 μM MALA T1-targeting gapmer oligonucleotide and simultaneously 2 μM AZ3327 (2 μM AZ3327), or Lipofectamine-complexed MALAT1 Oligonucleotide at 200 nM (LF2000). All treatments were performed in biological triplicates. […] RNA concentration was measured via Nanodrop and cDNA was synthesized with High Capacity cDNA Reverse Transcription kit as per manufacturer's instructions (ThermoFisher Scientific, 4368814).
Real-time PCR reactions were run on QuantStudio 7 Flex Real-Time PCR System (Applied Biosystems) using MALAT1 TaqMan assays (mouse Mm01227912, Applied Biosystems) following the manufacturer's instructions. […] The absolute mRNA expression levels for MALAT1 were calculated by linear regression fitting the PCR product to a standard curve. […]
For orientation: In qPCR the cycle at which signal appears reflects the starting amount.

A further data set has as its system T-47D cells. Description: Co-delivery of Cre recombinase, in vitro editing GFP reporter. Format: cell-based. Particulars: for editing: 50 nM Cre. The text has this: Cre recombinase was co-administered with Compound 4 to assess improvement in editing efficiency in an in vitro reporter system in which edited cells express GFP. Total cell counts are shown as unfilled bars (FIG. 43A, left panel); viable cells are shown in light gray shaded bars (FIG. 43A, middle panel); edited cell counts are shown in green shaded bars, and edited cell percentage is shown as the dotted line (FIG. 43A, right panel).
The media change increased cell viability, as shown by the difference between the left and right panels of FIGS. 43B and 43C. […] Greater than 80% editing was observed when Cre protein was co-administered with 2 μM or 3 μM Compound 4 in the media changed condition, and 3 μM Compound 4 in the media unchanged condition.

The subject of data set [3] is anti-CD3/28 stimulated T cells. Description: Co-delivery of Cre recombinase, ex vivo editing of T cells. Format: cell-based, mice. As to the method: The combination of Cre recombinase with Compound 4 was also tested in ex vivo editing of anti-CD3/28 stimulated T cells. […], then treated with 2.5 μM of Compound 4 with varying concentrations of Cre recombinase (50, 100, 200, 500 and 1000 nM), either on a U-plate with no mixing (T1) or mixed in a tube shaker during treatment (T2).

The mark [4] stands for this setting: non-activated T cells, FIG. 45A.

For `COc1nn(C2CCNCC2)cc1Nc1ncc(Cl)c(-n2ccc3c(C#N)cccc32)n1` [Compound 2], the “levels of splice-switching (functional mRNA)” value in data set [1] and in data set [2] was “greater levels of splice-switching than transfection with SSO using Lipofectamine 2000” throughout.
`COc1nn(C2CCNCC2)cc1Nc1ncc(F)c(-n2ccc3c(C#N)cccc32)n1` [Compound 4]: the “knockdown of MALAT1 mRNA expression as compared to oligo alone” value in the data set on MALAT1 mRNA is given as “enhanced knockdown of MALAT1 mRNA expression”. Also, the editing efficiency result in the data set with T-47D cells (50 nM Cre protein, 0, 1, 2 or 3 μM compound, FIG. 43B) was “improved editing efficiency in T-47D cells in a dose-dependent manner”; in data set [3] (activated T cells, 2.5 μM compound, FIG. 45C), “greater than 90%”. Moreover, the editing entry was “Greater than 80%” in the data set on T-47D cells (2 μM compound, media changed after 2 hours); “Greater than 80%” in the data set with T-47D cells (3 μM compound, media changed after 2 hours); “Greater than 80%” in the data set on T-47D cells (3 μM compound, media unchanged); “highly edited” in data set [3] (setting [4]). Moreover, the proliferative capacity entry in data set [3] (activated T cells, FIG. 45C) is given as “without affecting proliferative capacity”. Further, the proliferation rate entry in data set [3] (setting [4]) is given as “compromised”.
